Common to all, as to format: cell-based
One data set has as its system CYP1A2. The data set is described as follows: CLZD_CYP1A2: Change in expression of CYP1A2 (primary human hepatocytes). The following applies: 24 hr, scale not given, looks like -log10 of molar active concentration, 0 = no activity. In short, it runs like this: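 Primary human hepatocyte cultures were exposed to test chemicals at 5 concentrations (0.004-40 µM) for 6, 24 or 48 hr.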

For the next data set, the target named is T1, PPARa (PPARA) (Homo sapiens, UniProt Q07869).
T1 sequence (Q07869 1-468): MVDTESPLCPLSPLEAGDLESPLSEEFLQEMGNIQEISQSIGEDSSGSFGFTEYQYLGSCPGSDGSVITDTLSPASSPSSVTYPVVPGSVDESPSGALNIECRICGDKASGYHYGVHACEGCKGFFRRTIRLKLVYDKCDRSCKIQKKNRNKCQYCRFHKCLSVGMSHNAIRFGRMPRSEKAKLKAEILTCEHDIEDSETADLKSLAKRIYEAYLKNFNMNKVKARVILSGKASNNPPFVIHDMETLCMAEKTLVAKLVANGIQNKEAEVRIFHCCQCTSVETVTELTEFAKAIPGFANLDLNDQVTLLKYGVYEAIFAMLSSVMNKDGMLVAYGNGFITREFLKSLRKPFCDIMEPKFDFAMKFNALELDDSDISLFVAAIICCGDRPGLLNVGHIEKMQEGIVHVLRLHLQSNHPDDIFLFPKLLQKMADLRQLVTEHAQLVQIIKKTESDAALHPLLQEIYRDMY
The data set is described as follows: NCGC_PPARa_Agonist: GAL4 BLAM Reporter gene assay: PPARa. The settings on record: agonist mode; scale not given, looks like -log10 of molar active concentration; 0 = no activity. On the set-up: expressed in transfected cells; host or cells: HEK293. Here is the method:
These assays measure binding constants and enzyme inhibition values for nuclear receptors. The targets include [drawing 67] , [drawing 68] , [drawing 69] , [drawing 70] , [drawing 71] , [drawing 72] , [drawing 73] , [drawing 74] , [drawing 75] and [drawing 76] . Each of the nuclear receptor targets was measured in agonist mode. Assays were run at the NIH Chemical Genomics Center (Rockville, MD).
Cell-based HTS Assays: These assays measuring binding constants and enzyme inhibition values for nuclear receptors. The targets include AR, ER, FXR, LXR, PPARα, PPARδ, PPARγ, RXRα, RXRβ and PXR. Each of the nuclear receptor targets was measured in both agonist and antagonist mode, but the antagonist data is still undergoing analysis due to possible interference between cytotoxicity and assay activity, so antagonist mode data were not used in the present analysis. Assays were run at the NIH Chemical Genomics Center (Rockville, MD) as part of the Tox21 collaboration. […] The R^2 was required to be ≥0.5. Values where only the highest concentration exceeded 50% activity were excluded to eliminate weak or false positives. Detailed description of the methods, data and analysis methods for this dataset will be presented in a separate publication.
On the technique in general: Reporter assays use an easily measured gene product as a stand-in for the process of interest.

Data set [1] addresses T2, PPARA (peroxisome proliferator-activated receptor alpha) (Homo sapiens, UniProt Q07869).
T2 construct: expressed in transfected cells; host or cells: HepG2
T2 sequence (Q07869 1-468): T1 sequence (Q07869 1-468)
Nature of the data set: ATG_PPARa_TRANS: Factorial reporter gene assay (HepG2). Further details: scale not given here. The settings on record: scale not given, looks like -log10 of molar active concentration, 0 = no activity. Here is the method: A multiple reporter transcription unit (MRTU) library consisting of 48 transcription factor binding sites was transfected into the HepG2 human liver hepatoma cell line. In addition to the cis-acting reporter genes (CIS), a modification of the approach was used to generate a trans-system (TRANS) with a mammalian one-hybrid assay consisting of an additional 25 MRTU library reporting the activity of nuclear receptor super-family members. […] These assays were performed by Attagene Inc. (Morrisville NC) under contract to EPA.
In addition to the cis-acting reporter genes (CIS), a modification of the approach was used to generate a trans-system (TRANS) with a mammalian one-hybrid assay consisting of an additional 25 MRTU library reporting the activity of nuclear receptor super-family members. […] Chemicals were then tested in the CIS and TRANS assays at seven concentrations starting at the MTC and followed by three-fold serial dilutions. These assays were performed by Attagene Inc. (Morrisville NC) under contract to EPA. Detailed description of the methods, data and analysis methods for this dataset will be presented in a separate publication.

Data set [2] has as its target T3, PPARG (peroxisome proliferator-activated receptor gamma) (Homo sapiens, UniProt P37231).
T3 construct: expressed in transfected cells; host or cells: HepG2
T3 sequence (P37231 1-505): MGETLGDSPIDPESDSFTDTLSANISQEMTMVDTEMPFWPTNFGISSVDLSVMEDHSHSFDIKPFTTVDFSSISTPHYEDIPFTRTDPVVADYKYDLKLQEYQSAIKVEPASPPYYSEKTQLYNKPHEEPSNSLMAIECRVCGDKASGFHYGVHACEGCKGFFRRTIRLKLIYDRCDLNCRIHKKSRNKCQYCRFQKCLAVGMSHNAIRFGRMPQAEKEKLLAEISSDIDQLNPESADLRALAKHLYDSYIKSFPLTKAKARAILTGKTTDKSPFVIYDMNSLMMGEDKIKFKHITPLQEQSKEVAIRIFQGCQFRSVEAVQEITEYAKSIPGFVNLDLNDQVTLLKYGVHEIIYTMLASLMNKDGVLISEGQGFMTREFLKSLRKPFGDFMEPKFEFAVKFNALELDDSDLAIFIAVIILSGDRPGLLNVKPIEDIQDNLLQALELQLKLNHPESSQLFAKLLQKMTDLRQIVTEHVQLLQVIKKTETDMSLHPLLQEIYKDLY
Nature of the data set: ATG_PPARg_TRANS: Factorial reporter gene assay (HepG2). The settings on record: HepG2; scale not given, looks like -log10 of molar active concentration; 0 = no activity. In short, it runs like this: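 Transfected HepG2 line; multiplexed reporter read-out. PXRE = cis library (48 TF sites); ERRg/FXR/PPARg = trans one-hybrid library (25 units). Dose series of 7, MTC downward by 3x.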

For the next data set, the system named is CYP2B6. The data set is described as follows: CLZD_CYP2B6: Change in expression of CYP2B6 (primary human hepatocytes). The settings on record: 24 hr, scale not given, looks like -log10 of molar active concentration, 0 = no activity. In short, it runs like this: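 Five-point concentration series (0.004-40 µM) applied to primary human hepatocytes; 6/24/48 hr timepoints; transcript quantified by multiplexed nuclease protection.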

The compound `O=C1C2CC=CCC2C(=O)N1SC(Cl)(Cl)Cl` (centres unmarked) [r51] showed a CLZD_CYP1A2_24 in the data set with CYP1A2 of 0. On PPARa (PPARA), the NCGC_PPARa_Agonist is 0. Also, the ATG_PPARa_TRANS in data set [1] worked out at 0. In addition, the ATG_PPARg_TRANS in data set [2] was found to be 0. In the data set on CYP2B6, the CLZD_CYP2B6_24 is 0.
Compound `CC1=C(C(=O)Nc2ccccc2)SCCO1` [r53] came in with a CLZD_CYP1A2_24 in the data set on CYP1A2 of 4.782. Moreover, at PPARa (PPARA), the NCGC_PPARa_Agonist stood at 0. The compound further came in with an ATG_PPARa_TRANS in data set [1] of 0. In data set [2], this compound yielded an ATG_PPARg_TRANS of 4.119. Moreover, the CLZD_CYP2B6_24 in the data set with CYP2B6 is recorded as 4.923.
Compound `CCOC(=O)C(Cl)Cc1cc(-n2nc(C)n(C(F)F)c2=O)c(F)cc1Cl` (centres unmarked) [r54] yielded a CLZD_CYP1A2_24 in the data set on CYP1A2 of 0. This compound also showed an NCGC_PPARa_Agonist at PPARa (PPARA) of 0. This compound also gave an ATG_PPARa_TRANS in data set [1] of 0. Also, the ATG_PPARg_TRANS in data set [2] came to 4.319. The compound further gave a CLZD_CYP2B6_24 with CYP2B6 of 5.057.
As for `Nc1cnn(-c2ccccc2)c(=O)c1Cl` [r56], the CLZD_CYP1A2_24 in the data set on CYP1A2 turned out to be 4.955. The compound also came in with an NCGC_PPARa_Agonist on PPARa (PPARA) of 0. The compound further had an ATG_PPARa_TRANS in data set [1] of 0. The ATG_PPARg_TRANS in data set [2] worked out at 4.409. In the data set with CYP2B6, this compound yielded a CLZD_CYP2B6_24 of 0.
As for `COc1cc(Cl)c(OC)cc1Cl` [r57], the CLZD_CYP1A2_24 in the data set on CYP1A2 was found to be 0. Further, the NCGC_PPARa_Agonist on PPARa (PPARA) is given as 0. In addition, in data set [1], the ATG_PPARa_TRANS was found to be 0. The compound further displayed an ATG_PPARg_TRANS in data set [2] of 0. In the data set with CYP2B6, this compound gave a CLZD_CYP2B6_24 of 5.434.
`N#Cc1c(Cl)c(Cl)c(Cl)c(C#N)c1Cl` [r58] returned a CLZD_CYP1A2_24 in the data set with CYP1A2 of 0. The compound further displayed an NCGC_PPARa_Agonist at PPARa (PPARA) of 0. Further, the ATG_PPARa_TRANS in data set [1] came out at 0. The same compound displayed an ATG_PPARg_TRANS in data set [2] of 0. The CLZD_CYP2B6_24 in the data set with CYP2B6 is given as 0.
Consider `CC(C)OC(=O)Nc1cccc(Cl)c1` [r59], for which, in the data set with CYP1A2, the CLZD_CYP1A2_24 is 5.159. This compound also came in with an NCGC_PPARa_Agonist on PPARa (PPARA) of 0. Moreover, the ATG_PPARa_TRANS in data set [1] stood at 0. The ATG_PPARg_TRANS in data set [2] was determined as 4.301. In addition, the CLZD_CYP2B6_24 in the data set on CYP2B6 amounted to 4.931.
Compound `COc1nc(C)nc(NC(=O)NS(=O)(=O)c2ccccc2Cl)n1` [r62] came in with a CLZD_CYP1A2_24 with CYP1A2 of 0. At PPARa (PPARA), this compound displayed an NCGC_PPARa_Agonist of 0. For the same compound, the ATG_PPARa_TRANS in data set [1] is 0. In data set [2], this compound came in with an ATG_PPARg_TRANS of 0. Besides, the CLZD_CYP2B6_24 with CYP2B6 stood at 0.
Consider `COc1nc(C)nc(NC(=O)NS(=O)(=O)c2ccccc2Cl)n1` [r63], for which the CLZD_CYP1A2_24 with CYP1A2 is on record as 0. Besides, the NCGC_PPARa_Agonist on PPARa (PPARA) worked out at 0. Besides, the ATG_PPARa_TRANS in data set [1] is recorded as 0. In data set [2], this compound registered an ATG_PPARg_TRANS of 0. This compound also returned a CLZD_CYP2B6_24 in the data set on CYP2B6 of 0.
For `Cc1ccccc1CO[C@@H]1C[C@@]2(C(C)C)CC[C@]1(C)O2` [r64], in the data set with CYP1A2, the CLZD_CYP1A2_24 is 5.157. On PPARa (PPARA), this compound yielded an NCGC_PPARa_Agonist of 0. The ATG_PPARa_TRANS in data set [1] was 0. Moreover, the ATG_PPARg_TRANS in data set [2] was determined as 4.377. The same compound displayed a CLZD_CYP2B6_24 in the data set with CYP2B6 of 0.
